Assay results as given in patent publication US20230180758A1, “SUBSTITUTED PYRROLINE-2-ONES AND THEIR USE AS HERBICIDES” (Bayer Aktiengesellschaft, priority 2020, published 2023).

Columns and labels:
Type in all cases: in vivo
Alopecurus myosuroides [1] = experiment: Post-emergence herbicidal effect against ALOMY; settings: visual assessment after about 3 weeks, 100% = plants have died
Experimental: (§1) 1. Post-Emergence Herbicidal Effect and Crop Plant Compatibility
(§2) Seeds of monocotyledonous and dicotyledonous weed and crop plants are laid out in sandy loam soil in wood-fibre pots, covered with soil and cultivated in a greenhouse under good growth conditions. 2 to 3 weeks after sowing, the test plants are treated at the one-leaf stage. The compounds of the invention, formulated in the form of wettable powders (WP) or as emulsion concentrates (EC), are then sprayed onto the green parts of the plants as aqueous suspension or emulsion at a water application rate equating to 600 to 800 l/ha with addition of 0.2% wetting agent. After the test plants have been left to stand in the greenhouse under optimal growth conditions for about 3 weeks, the action of the preparations is assessed visually in comparison to untreated controls (herbicidal action in percent (%): 100% activity=the plants have died, 0% activity=like control plants).

Avena fatua [2] = experiment: Post-emergence herbicidal effect against AVEFA; settings: 80 g/ha, visual assessment after about 3 weeks, 100% = plants have died
Experimental: as §1, §2

Digitaria sanguinalis = experiment: Post-emergence herbicidal effect against DIGSA; settings: visual assessment after about 3 weeks, 100% = plants have died
Experimental: as §1, §2

Echinochloa crus-galli [3] = experiment: Post-emergence herbicidal effect against ECHCG; settings: visual assessment after about 3 weeks
Experimental: as §1, §2

Lolium rigidum [4] = experiment: Post-emergence herbicidal effect against LOLRI; settings: 80 g/ha, visual assessment after about 3 weeks
Experimental: as §1, §2

Setaria viridis = experiment: Post-emergence herbicidal effect against SETVI; settings: visual assessment after about 3 weeks
Experimental: as §1, §2

Hordeum murinum = experiment: Post-emergence herbicidal effect against HORMU; settings: 80 g/ha, visual assessment after about 3 weeks
Experimental: as §1, §2

Alopecurus myosuroides [5] = experiment: Pre-emergence herbicidal effect against ALOMY; settings: 320 g/ha, scored visually after 3 weeks
Excerpt: (§3) 2. Pre-Emergence Herbicidal Effect and Crop Plant Compatibility
(§4) Seeds of monocotyledonous and dicotyledonous weed plants and crop plants are laid out in sandy loam soil in wood-fibre pots and covered with soil. The compounds of the invention, formulated in the form of wettable powders (WP) or as emulsion concentrates (EC), are then applied to the surface of the covering soil as aqueous suspension or emulsion at a water application rate equating to 600 to 800 L/ha with addition of 0.2% wetting agent.
(§5) After the treatment, the pots are placed in a greenhouse and kept under good growth conditions for the trial plants. The damage to the test plants is scored visually after a test period of 3 weeks by comparison with untreated controls (herbicidal activity in percent (%): 100% activity=the plants have died, 0% activity=like control plants).

Avena fatua [6] = experiment: Pre-emergence herbicidal effect against AVEFA; settings: 320 g/ha, scored visually after 3 weeks
Excerpt: as §3, §4, §5

Echinochloa crus-galli [7] = experiment: Pre-emergence herbicidal effect against ECHCG; settings: 320 g/ha, scored visually after 3 weeks
Excerpt: as §3, §4, §5

Lolium rigidum [8] = experiment: Pre-emergence herbicidal effect against LOLRI; settings: scored visually after 3 weeks
Excerpt: as §3, §4, §5

Row | SMILES | Post-emergence action against ALOMY (Alopecurus myosuroides [1]; 20 g/ha) [%] | Post-emergence action against ALOMY (Alopecurus myosuroides [1]; 80 g/ha) [%] | Post-emergence action against AVEFA (Avena fatua [2]) [%] | Post-emergence action against DIGSA (Digitaria sanguinalis; 20 g/ha) [%] | Post-emergence action against DIGSA (Digitaria sanguinalis; 80 g/ha) [%] | Post-emergence action against ECHCG (Echinochloa crus-galli [3]; 80 g/ha) [%] | Post-emergence action against LOLRI (Lolium rigidum [4]) [%] | Post-emergence action against SETVI (Setaria viridis; 20 g/ha) [%] | Post-emergence action against SETVI (Setaria viridis; 80 g/ha) [%] | Post-emergence action against HORMU (Hordeum murinum) [%] | Post-emergence action against ECHCG (Echinochloa crus-galli [3]; 20 g/ha) [%] | Pre-emergence action against ALOMY (Alopecurus myosuroides [5]) [%] | Pre-emergence action against AVEFA (Avena fatua [6]) [%] | Pre-emergence action against ECHCG (Echinochloa crus-galli [7]) [%] | Pre-emergence action against LOLRI (Lolium rigidum [8]; 80 g/ha) [%] | Pre-emergence action against LOLRI (Lolium rigidum [8]; 320 g/ha) [%]
1 | COc1cc(C)cc(C)c1C1=C(O)C2(COC3(CCOCC3)OC2)NC1=O [Example 1-1] | 100 | 100 | 100 | 100 | 100 | 100 | 100 | 100 | 100 | 100 | – | – | – | – | – | –
2 | COc1cc(Cl)cc(C)c1C1=C(O)C2(COC3(CCOCC3)OC2)NC1=O [Example 1-4, 3-(4-chloro-2-methoxy-6-methylphenyl)-4-hydroxy-7,11,14-trioxa-1-azadispiro[4.2.5^8.2^5]pentadec-3-en-2-one] | 90 | 100 | 100 | 80 | 80 | 80 | 100 | 80 | 90 | – | – | – | – | – | – | –
3 | COc1cc(C)cc(C)c1C1=C([O-])C2(COC3(CCOCC3)OC2)NC1=O.[Na+] [Example 2-1] | 90 | 100 | 100 | 90 | 90 | 100 | 100 | 90 | 90 | 90 | – | – | – | – | – | –
4 | COc1cc(Cl)cc(C)c1C1=C(O)C2(COC3(CCOCC3)OC2)NC1=O [Example 2-4, sodium 3-(4-chloro-2-methoxy-6-methylphenyl)-2-oxo-7,11,14-trioxa-1-azadispiro[4.2.5^8.2^5]pentadec-3-en-4-olate] | 80 | 100 | 100 | 90 | 90 | 80 | 90 | 80 | 80 | – | – | – | – | – | – | –
5 | CCC(=O)OC1=C(c2c(C)cc(C)cc2OC)C(=O)NC12COC1(CCOCC1)OC2 [Example 3-1] | 90 | 100 | 90 | 90 | 100 | 100 | 100 | 80 | 90 | 90 | – | – | – | – | – | –
6 | CCC(=O)OC1=C(c2c(C)cc(Cl)cc2OC)C(=O)NC12COC1(CCOCC1)OC2 [Example 3-4, 3-(4-chloro-2-methoxy-6-methylphenyl)-2-oxo-7,11,14-trioxa-1-azadispiro[4.2.5^8.2^5]pentadec-3-en-4-yl propionate] | 90 | 100 | 100 | 100 | 100 | 100 | 100 | 80 | 90 | – | – | – | – | – | – | –
7 | CCOC(=O)OC1=C(c2c(C)cc(C)cc2OC)C(=O)NC12COC1(CCOCC1)OC2 [Example 4-1] | 100 | 100 | 100 | 90 | 90 | 100 | 100 | 90 | 100 | 100 | – | – | – | – | – | –
8 | CCOC(=O)OC1=C(c2c(C)cc(Cl)cc2OC)C(=O)NC12COC1(CCOCC1)OC2 [Example 4-4, 3-(4-chloro-2-methoxy-6-methylphenyl)-2-oxo-7,11,14-trioxa-1-azadispiro[4.2.5^8.2^5]pentadec-3-en-4-yl ethyl carbonate] | 90 | 100 | 80 | 90 | 90 | 100 | 90 | 80 | 90 | – | – | – | – | – | – | –
9 | COc1cc(C)cc(C)c1C1=C(O)C2(COC3(CCOCC3)OC2)N(C)C1=O [Example 5-1] | 80 | 90 | – | – | – | 100 | 90 | 90 | 90 | – | 100 | 90 | 100 | 100 | 100 | 100
10 | COc1cc(C)cc(C)c1C1=C([O-])C2(COC3(CCOCC3)OC2)N(C)C1=O.[Na+] [Example 6-1] | – | 90 | – | – | – | 100 | 90 | 90 | 90 | – | 90 | 100 | 90 | 100 | 100 | 100
11 | CCOC(=O)OC1=C(c2c(C)cc(C)cc2OC)C(=O)N(C)C12COC1(CCOCC1)OC2 [Example 8-1] | – | – | – | – | – | 90 | 90 | 80 | 100 | – | 80 | 100 | 100 | 100 | 100 | 100
